{"source": "patent US20250205195A1", "about": "“BENZYLOXY-BENZYLAMINYL AMINO ACID DERIVATIVE FOR ADJUSTING TSLP/TSLPR SIGNAL TRANSMISSION” (AMTIXBIO CO., LTD., priority 2021, published 2025)", "key": {"[1]": {"tested_on": "HDM-induced atopic dermatitis mice", "assay": "House dust mite (HDM) atopic dermatitis mouse model, dermatitis score", "assay_type": "in vivo, Nc/Nga mice", "conditions": "topical or oral, 10 days after administration, vs control group", "from_the_text": "Nc/Nga mice (Supplier: Central Animal Laboratory, South Korea, Male, 8 weeks old) were used, with 8 mice per group. The experimental animals were allowed free access to Purina Nestle feed (Switzerland) and water. The mice were shaved using clippers and depilatory cream one day (day 0) before applying Df cream (Dermatophagoides farina cream, Biostir AD, Biostir Incorporation). Df cream was applied to the mouse dorsal area twice a week for 5 weeks to induce atopic dermatitis. After confirming lesions in all mice, compound 27 of the present invention was administered topically or orally for 3 weeks (21 days) from 2 weeks after Df cream application. For topical administration, compound 27 was mixed with 100% ethanol to achieve concentrations of 0.3%, 1%, or 3%, and applied once daily. It was applied to both ears (25 μL each) and the dorsal area (70 μL). 100% ethanol was used as the topical vehicle. For oral administration, compound 27 was administered at doses of 25 mpk (once daily, QD), 50 mpk (QD), or 10 mpk (twice daily, BID). […]\nSkin indicators were recorded through visual observation once a week (on days 0, 7, 14, 21, 28, and 36). […] Each item was scored as follows: no symptoms (0 points), mild symptoms (1 point), moderate symptoms (2 points), and severe symptoms (3 points). The total score was calculated by summing up scores for all items."}, "[2]": {"tested_on": "HDM-induced atopic dermatitis mice", "assay": "HDM (Df cream) atopic dermatitis mouse model, skin-specific memory T cell study", "assay_type": "in vivo, Nc/Nga mice", "from_the_text": "Nc/Nga mice (purchased from Central Laboratory Animal, male, 6 weeks old) were used, with 2 mice per group. The experimental animals were allowed to freely access to food and water. Mice were shaved using clippers and depilatory cream before the application of Df cream. Df cream (dermatophagoides farina cream) (Biostir AD, Biostir Incorporation) was applied to the dorsal area of the mice 3 times a week for 4 weeks to induce atopic dermatitis. After confirming lesions induced in all mice, compound 27 of the present invention was applied topically to the skin three times a week for three weeks starting four weeks after the Df cream treatment. In contrast to other examples, this example excluded the simultaneous application of the test drug (compound 27 of the present invention) and the atopic dermatitis-inducing agent during the induction period. The compound of the present invention (8 g/mL and […]) was applied to the skin in a volume of 100 μL. As a positive control, 0.1% dexamethasone was topically applied to the mouse skin for comparison.\nErythema, hemorrhage, wounds, dryness, swelling, and shedding in mice were observed visually and compared using the SCORAD score. […] FIG. 12 graphically represents the changes in the atopic dermatitis mouse model's skin scores due to the treatment with each test substance (Wilcoxon-signed rank test; P<0.05 with statistically significant three mice were examined from each group).\nA mouse IgE ELISA Kit (BioLegend, San Diego, CA, USA) and a mouse DF-specific IgE ELISA Kit (BioLegend, San Diego, CA, USA) were used according to the manufacturer's instructions to measure IgE in mouse serum and mouse DF-specific IgE. Changes in the levels of total IgE and DF-specific IgE in the serum were presented in FIGS. 13 (a) and (b), respectively.\nSkin tissue changes were examined using Hematoxylin and Eosin (H&E) staining (refer to FIG. 14) (Data are shown as mean±standard deviation (SD). ** P<0.01, * P<0.05). Additionally, changes in eosinophils and mouse epidermal thickness were measured (see FIG. 14).\nThe results of the analysis of T cell fractions in the skin of atopic dermatitis mouse models treated with compound 27 of the present invention are presented in FIGS. 16 and 17 (data are shown as mean±standard deviation (SD). ** P<0.01, * P<0.05)."}}}
{"smiles": "CCC(NC)C(=O)NCc1ccc(OCc2ccc(C(F)(F)F)cc2)cc1", "note": "(racemic) [Compound 27, (R)/(S)-2-(methylamino)-N-(4-((4-trifluoromethyl)benzyl)oxy)benzyl)butanamide]", "values": [{"measurement": "improvement of skin lesions (Modified SCORAD score)", "setting": "[1]", "value": "superior effect"}, {"measurement": "proportion of skin-specific T cells (CD3+, CD4+, CD69+, CD103+)", "setting": "[2]; FACS of mouse skin, 16 g/mL, 8 g/mL", "value": "concentration-dependent significant decrease"}, {"measurement": "numbers of CD69+ T cells and CD103+ T cells", "setting": "[2]; FACS of mouse skin, vs 0.1% dexamethasone", "value": "statistically significant decrease"}, {"measurement": "eosinophil count in skin tissue", "setting": "[2]; H&E staining, topical", "value": "concentration-dependent decrease"}, {"measurement": "epidermal thickness", "setting": "[2]; H&E staining, with increasing drug concentration", "value": "appeared to thin"}, {"measurement": "atopic dermatitis symptoms (skin scores, FIG. 12)", "setting": "[2]; […], 8 g/mL topical", "value": "improved atopic dermatitis symptoms in a concentration-dependent manner"}, {"measurement": "erythema, hemorrhage, dryness, wounds, swelling and shedding (visual, SCORAD)", "setting": "[2]; topical, three times a week for three weeks, compound vs 0.1% dexamethasone positive control", "value": "significant reduction"}]}
